In ChEMBL document CHEMBL1201862, “PubChem BioAssay data set” (2004):
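Dose response: 5 concentrations. Exposure: 48 h. Format: 96-well plates. Endpoint: linear interpolation; highest concentration if not reached. The concentration for 50% growth inhibition is given as GI50.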 Calls of active or inactive are those of the source. Rule as the data show it: active = GI50 up to about 1.1 µM and inactive = higher.

Legend:
Test in all cases: growth of human tumour cells (NCI), 48 h
[1] = tested on: SK-MEL-28
[2] = tested on: MCF7
[3] = tested on: OVCAR-4
[4] = tested on: CAKI-1
[5] = tested on: MDA-MB-231
[6] = tested on: RPMI-8226
[7] = tested on: SF-268
[8] = tested on: KM12
[9] = tested on: SNB-75
[10] = tested on: SNB-19
[11] = tested on: U-251
[12] = tested on: CCRF-CEM
[13] = tested on: SK-OV-3
[14] = tested on: HCC 2998
[15] = tested on: SF-539
[16] = tested on: RXF 393
[17] = tested on: HCT-116
[18] = tested on: A498
[19] = tested on: NCI-H23
[20] = tested on: NCI/ADR-RES
[21] = tested on: COLO 205
[22] = tested on: OVCAR-3
[23] = tested on: OVCAR-8
[24] = tested on: SN12C
[25] = tested on: EKVX
[26] = tested on: HCT-15
[27] = tested on: NCI-H460
[28] = tested on: NCI-H226
[29] = tested on: LOX IMVI
[30] = tested on: DU-145
[31] = tested on: HT-29
[32] = tested on: K562
[33] = tested on: UACC-257
[34] = tested on: T47D
[35] = tested on: MOLT-4
[36] = tested on: Hs-578T
[37] = tested on: M14
[38] = tested on: Malme-3M
[39] = tested on: UACC-62
[40] = tested on: MDA-N
[41] = tested on: TK-10
[42] = tested on: OVCAR-5
[43] = tested on: BT-549
[44] = tested on: A549
[45] = tested on: PC-3
[46] = tested on: 786-0
[47] = tested on: HL-60
[48] = tested on: UO-31
[49] = tested on: SK-MEL-2
[50] = tested on: SW-620
[51] = tested on: MDA-MB-435
[52] = tested on: SR
[53] = tested on: HOP-62
[54] = tested on: SK-MEL-5
[55] = tested on: SF-295
[56] = tested on: IGROV-1
[57] = tested on: ACHN
[58] = tested on: NCI-H522
[59] = tested on: HOP-92

Measured: GI50

COC(=O)N1N=C(c2ccccc2)C1c1ccccc1 (configuration not stated)
39.5 µM: [26]
inactive: [1] 39.7 µM | [2] 28.9 µM | [3] 25.8 µM | [4] 33.6 µM | [5] 24.6 µM | [6] 26.7 µM | [7] 62.7 µM | [8] 47.4 µM | [9] 36 µM | [10] 29.5 µM | [11] 42.7 µM | [12] 31.9 µM | [13] 69.3 µM | [14] 32.1 µM | [15] 22.9 µM | [16] 31.7 µM | [17] 33.3 µM | [18] 24 µM | [19] 24.8 µM | [20] 23.2 µM | [21] 27 µM | [22] 37.9 µM | [23] 27.5 µM | [24] 42.4 µM | [25] 42.5 µM | [27] 30.8 µM | [28] 21.8 µM | [29] 26.2 µM | [30] 49.2 µM | [31] 32.1 µM | [32] 23.8 µM | [33] 24.5 µM | [34] 25.4 µM | [35] 28.1 µM | [36] 71 µM | [37] 34.5 µM | [38] 40.7 µM | [39] 22 µM | [40] 31.1 µM | [41] 70.1 µM | [42] 78.5 µM | [43] 30.5 µM | [44] 31 µM | [45] 26.9 µM | [46] 35.2 µM | [47] 27.2 µM | [48] 13.7 µM | [49] 34.5 µM | [50] 48.6 µM | [51] 33.7 µM | [52] 31.9 µM

COc1ccc([N+](=O)[O-])c2c(NCC(O)CO)ccnc12 (configuration not stated)
inactive: [53] 38.6 µM | [1] > 100 µM | [2] 29 µM | [3] 13.5 µM | [4] 52.6 µM | [5] 88.1 µM | [6] 62.7 µM | [7] 35.9 µM | [8] 37.8 µM | [9] 47.8 µM | [10] 93.8 µM | [11] 50.4 µM | [12] 87.1 µM | [13] > 100 µM | [14] 32.2 µM | [54] 23 µM | [15] 28.8 µM | [16] 28.1 µM | [17] 28.9 µM | [18] 32.4 µM | [19] 18 µM | [55] 39.8 µM | [56] 27.3 µM | [21] 22.5 µM | [22] 24.2 µM | [23] 50.4 µM | [24] 77.8 µM | [25] 16.1 µM | [27] 16.9 µM | [29] 36.1 µM | [30] 83.9 µM | [31] 31.7 µM | [32] 18.5 µM | [33] 28.1 µM | [34] 36.4 µM | [35] 38.9 µM | [36] 22.5 µM | [37] 52.7 µM | [57] 43.8 µM | [38] 20.3 µM | [39] 22 µM | [40] 49.3 µM | [41] 67.5 µM | [42] > 100 µM | [43] 20 µM | [44] 35 µM | [45] 49.8 µM | [46] 67.6 µM | [47] 51.1 µM | [48] 63.1 µM | [49] 23.1 µM | [58] 15.5 µM | [50] 42.1 µM | [51] > 100 µM | [52] 34.4 µM
16.1 µM: [26]

CC(=O)C1=C(C)N2C(=NC3=C(CCc4ccccc43)C2c2ccc(Cl)cc2)S1 (configuration not stated)
inactive: [53] > 100 µM | [1] > 100 µM | [2] 20.5 µM | [3] > 36.1 µM | [4] > 100 µM | [5] > 100 µM | [6] 2.12 µM | [7] > 87.9 µM | [8] 33.3 µM | [9] > 32.5 µM | [10] > 100 µM | [11] > 67.5 µM | [12] 8.41 µM | [13] > 100 µM | [14] 5.69 µM | [54] 26.1 µM | [15] > 92.9 µM | [16] 5.56 µM | [17] 5.85 µM | [18] 20.7 µM | [19] 71.1 µM | [55] > 100 µM | [20] > 73.8 µM | [56] 12.3 µM | [21] 21.4 µM | [22] > 38.7 µM | [23] > 100 µM | [24] > 100 µM | [59] 31 µM | [25] 46.8 µM | [27] 16.1 µM | [28] > 100 µM | [29] > 81.1 µM | [30] > 100 µM | [31] 7.45 µM | [32] 2.05 µM | [33] > 78.5 µM | [34] 5.53 µM | [35] 3.8 µM | [36] > 64 µM | [37] > 40.4 µM | [57] > 100 µM | [38] 48.5 µM | [39] 58.7 µM | [40] 46.8 µM | [41] > 100 µM | [42] > 100 µM | [43] > 100 µM | [44] 53.8 µM | [45] 10.2 µM | [46] > 52.4 µM | [47] 4.42 µM | [48] > 53.7 µM | [49] > 45 µM | [58] 6.53 µM | [50] > 33.3 µM | [51] > 43.1 µM
29.2 µM: [26]

CCOC(=O)C1=NN(c2ccc([N+](=O)[O-])cc2)[C@@]2(C)C[C@]3(c4ccccc4)N(c4ccc([N+](=O)[O-])cc4)N=C(C(=O)OCC)N3c3ccccc3N12
inactive: [53] > 100 µM | [1] > 100 µM | [2] > 100 µM | [3] > 100 µM | [4] > 100 µM | [5] 4.51 µM | [6] > 100 µM | [7] > 100 µM | [8] > 100 µM | [9] > 100 µM | [10] > 100 µM | [11] > 100 µM | [12] > 100 µM | [13] > 100 µM | [14] > 100 µM | [54] > 100 µM | [15] > 100 µM | [16] > 100 µM | [17] > 100 µM | [18] > 100 µM | [19] > 100 µM | [55] > 100 µM | [20] > 100 µM | [56] > 100 µM | [21] > 100 µM | [22] > 100 µM | [23] > 100 µM | [24] > 100 µM | [25] > 100 µM | [28] > 100 µM | [29] > 100 µM | [30] > 100 µM | [31] > 100 µM | [32] > 100 µM | [33] > 100 µM | [34] > 100 µM | [35] > 100 µM | [36] > 100 µM | [37] 53.2 µM | [57] > 100 µM | [38] > 100 µM | [39] > 100 µM | [40] > 100 µM | [41] > 100 µM | [42] > 100 µM | [43] > 100 µM | [44] > 100 µM | [45] > 100 µM | [46] > 100 µM | [47] > 100 µM | [48] > 100 µM | [49] > 100 µM | [58] > 100 µM | [50] > 100 µM | [51] > 100 µM | [52] > 100 µM
> 100 µM: [26]

CC[C@]12C=CCN3CC[C@@]4(c5cc(Br)c(OC)cc5N(C)[C@H]4[C@@](O)(C(=O)NC(Cc4c[nH]c5ccccc45)C(=O)OC)[C@@H]1O)[C@@H]32 (some centres not stated)
5.74 µM: [26]
inactive: [53] 12.6 µM | [1] 92.9 µM | [2] 12.3 µM | [3] 20.5 µM | [4] 86.1 µM | [5] 30.6 µM | [6] 2.94 µM | [7] 6.15 µM | [8] 11 µM | [9] > 100 µM | [10] 33.2 µM | [11] 5.04 µM | [12] 5.62 µM | [13] > 100 µM | [54] 7.31 µM | [15] 16.4 µM | [16] 19.1 µM | [17] 7.08 µM | [19] 45.1 µM | [55] 9.46 µM | [20] 7.91 µM | [56] 19.4 µM | [21] 3.46 µM | [22] 9.16 µM | [23] 6.59 µM | [24] 29.4 µM | [59] 22.3 µM | [25] 18.4 µM | [28] 10.8 µM | [29] 4.6 µM | [30] 35.2 µM | [31] 7.89 µM | [32] 5.37 µM | [34] 5.2 µM | [35] 2.87 µM | [36] 58.3 µM | [37] 20.5 µM | [57] 17.5 µM | [38] 11.6 µM | [39] 24.3 µM | [40] 23.3 µM | [42] 71.4 µM | [43] 7.94 µM | [44] 11.8 µM | [45] 8.2 µM | [46] 45.5 µM | [47] 13.5 µM | [48] 20.8 µM | [49] 25.2 µM | [58] 8.83 µM | [50] 89.7 µM | [51] 26.2 µM | [52] 4.33 µM
